Assays:
[1] = Drug metabolism in Beagle dog plasma assessed as cis-(R)-2-(4-(((1R,2R)-2-Hydroxycyclopentyl)methyl)phenyl)propanoic acid metabolite formation at 3 mg/kg, iv measured after 2 hrs by UHPLC-MS/MS analysis; type: ADME, organism-based, Canis lupus familiaris; conditions: in vivo
[2] = Toxicity in female Sprague-Dawley rat assessed as decrease in hemoglobin level at 10 mg/kg , iv administered every day for 4 weeks; type: organism-based; parameters: scale not given: the % may be the effect or the level left; conditions: in vivo, 672 h
[3] = species: Rattus norvegicus; assay: Anti-hyperalgesic activity in carrageenan-induced mechanical hyperalgesia Sprague-Dawley rat model assessed as paw withdrawal threshold measured after 2.5 hrs by paw pressure test; type: functional
[4] = Drug metabolism in Beagle dog plasma assessed as cis-(R)-2-(4-(((1S,2S)-2-hydroxycyclopentyl)methyl)phenyl)propanoic acid metabolite formation at 3 mg/kg, iv measured after 2 hrs by UHPLC-MS/MS analysis; type: ADME, organism-based, Canis lupus familiaris; conditions: in vivo
[5] = Drug metabolism in Beagle dog plasma assessed as trans-(R)-2-(4-(((1S,2R)-2-Hydroxycyclopentyl)methyl)phenyl)propanoic acid metabolite formation at 3 mg/kg, iv measured after 2 hrs by UHPLC-MS/MS analysis; type: ADME, organism-based, Canis lupus familiaris; conditions: in vivo
[6] = Toxicity in Sprague-Dawley rat assessed as change in mean corpuscular hemoglobin concentration at 10 mg/kg , iv administered every day for 4 weeks and measured after 8 weeks; type: organism-based; conditions: in vivo, 1344 h
[7] = Plasma protein binding in CD-1 mouse at 600 to 15000 ng/ml measured after 6 hrs by LC-MS/MS analysis; type: ADME, cell-free; conditions: dose 600-15000 ng/ml, read-out: PPB
[8] = Toxicity in Sprague-Dawley rat assessed as effect on reticulocytes at 10 mg/kg , iv administered every day for 4 weeks; type: organism-based; conditions: in vivo, 672 h
[9] = Plasma protein binding in Sprague-Dawley rat at 600 to 15000 ng/ml measured after 6 hrs by LC-MS/MS analysis; type: ADME, cell-free; conditions: dose 600-15000 ng/ml, read-out: PPB
[10] = Solubility of the compound in pre-warmed distilled water at 500 mg measured after 30 mins by HPLC analysis; type: physicochemical
[11] = Toxicity in Beagle dog assessed as change in mean corpuscular hemoglobin concentration at 10 mg/kg , iv administered every day for 4 weeks; type: organism-based, Canis lupus familiaris; conditions: in vivo, 672 h
[12] = Toxicity in Sprague-Dawley rat assessed as change in red cell distribution width at 10 mg/kg , iv administered every day for 4 weeks; type: organism-based; conditions: in vivo, 672 h
[13] = Toxicity in Beagle dog assessed as effect on reticulocytes at 10 mg/kg, iv administered every day for 4 weeks; type: organism-based, Canis lupus familiaris; conditions: in vivo, 672 h
[14] = test system: Mus musculus; assay: Analgesic activity in acetic acid induced ICR mouse assessed as average writhing times at 0.50 mg/kg, iv administered for 15 mins followed by acetic acid injection and measured within 15 mins (reference value: 21.1 +/- 16.3); type: functional; conditions: dose 0.5 mg/kg, time 30 min
[15] = test system: Mus musculus; assay: Antinociceptive activity in acetic acid induced ICR mouse assessed as inhibition effect at 0.25 mg/kg, iv administered for 15 mins followed by acetic acid injection and measured within 15 mins; type: functional; conditions: 0.5 h, time 30 min
[16] = species: Rattus norvegicus; assay: Antiinflammatory activity in carrageenan-induced Sprague-Dawley rat assessed as paw withdrawal threshold measured after 2.5 hrs by paw pressure test; type: functional
[17] = Toxicity in Sprague-Dawley rat assessed as change in mean corpuscular hemoglobin concentration at 10 mg/kg , iv administered every day for 4 weeks; type: organism-based; conditions: in vivo, 672 h
[18] = test system: Mus musculus; assay: Antinociceptive activity in acetic acid induced ICR mouse assessed as inhibition effect at 0.13 mg/kg, iv administered for 15 mins followed by acetic acid injection and measured within 15 mins; type: functional; conditions: 0.5 h, time 30 min
[19] = Toxicity in Sprague-Dawley rat assessed as change in hemoglobin level at 10 mg/kg , iv administered every day for 4 weeks and measured after 8 weeks; type: organism-based; conditions: in vivo, 1344 h
[20] = Drug metabolism in Sprague-Dawley rat plasma assessed as cis-(R)-2-(4-(((1S,2S)-2-hydroxycyclopentyl)methyl)phenyl)propanoic acid metabolite formation at 3 mg/kg, iv measured after 2 hrs by UHPLC-MS/MS analysis; type: ADME, organism-based; conditions: in vivo
[21] = Plasma protein binding in human at 600 to 15000 ng/ml measured after 1 to 8 hrs by LC-MS/MS analysis; type: ADME, cell-free; conditions: dose lower 600 ng/ml, time lower 1 hrs, dose upper 15000 ng/ml, time upper 8 hrs, read-out: PPB
[22] = Toxicity in Sprague-Dawley rat assessed as effect on reticulocytes at 10 mg/kg , iv administered every day for 4 weeks and measured after 8 weeks; type: organism-based; conditions: in vivo, 1344 h
[23] = Plasma protein binding in Beagle dog at 600 to 15000 ng/ml measured after 6 hrs by LC-MS/MS analysis; type: ADME, cell-free, Canis lupus familiaris; conditions: dose 600-15000 ng/ml, read-out: PPB
[24] = Toxicity in Sprague-Dawley rat assessed as change in RBC level at 10 mg/kg , iv administered every day for 4 weeks and measured after 8 weeks; type: organism-based, Erythrocyte; conditions: in vivo, 1344 h
[25] = test system: Mus musculus; assay: Analgesic activity in acetic acid induced ICR mouse assessed as average writhing times at 0.13 mg/kg, iv administered for 15 mins followed by acetic acid injection and measured within 15 mins (reference value: 21.1 +/- 16.3); type: functional; conditions: time 30 min, 0.5 h
[26] = test system: Mus musculus; assay: Antinociceptive activity in acetic acid induced ICR mouse assessed as inhibition effect at 1 mg/kg, iv administered for 15 mins followed by acetic acid injection and measured within 15 mins; type: functional; conditions: 0.5 h, time 30 min
[27] = Toxicity in male Sprague-Dawley rat assessed as decrease in hemoglobin level at 10 mg/kg , iv administered every day for 4 weeks; type: organism-based; parameters: scale not given: the % may be the effect or the level left; conditions: in vivo, 672 h
[28] = test system: Mus musculus; assay: Antinociceptive activity in acetic acid induced ICR mouse assessed as inhibition effect at 0.50 mg/kg, iv administered for 15 mins followed by acetic acid injection and measured within 15 mins; type: functional; conditions: 0.5 h, time 30 min
[29] = test system: Mus musculus; assay: Analgesic activity in acetic acid induced ICR mouse assessed as average writhing times at 1 mg/kg, iv administered for 15 mins followed by acetic acid injection and measured within 15 mins (reference value: 21.1 +/- 16.3); type: functional; conditions: time 30 min, 0.5 h
[30] = test system: Mus musculus; assay: Analgesic activity in iv dosed ICR mouse assessed as reduction in acetic acid induced writhing administered for 15 mins followed by acetic acid injection and measured within 15 mins; type: functional; conditions: 0.5 h, time 30 min
[31] = Drug metabolism in Sprague-Dawley rat plasma assessed as trans-(R)-2-(4-(((1S,2R)-2-Hydroxycyclopentyl)methyl)phenyl)propanoic acid metabolite formation at 3 mg/kg, iv measured after 2 hrs by UHPLC-MS/MS analysis; type: ADME, organism-based; conditions: in vivo
[32] = Toxicity in female Sprague-Dawley rat assessed as decrease in RBC level at 10 mg/kg , iv administered every day for 4 weeks; type: organism-based, Erythrocyte; parameters: scale not given: the % may be the effect or the level left; conditions: in vivo, 672 h
[33] = Toxicity in Beagle dog assessed as change in RBC level at 10 mg/kg , iv administered every day for 4 weeks; type: organism-based, Canis lupus familiaris, Erythrocyte; conditions: in vivo, 672 h
[34] = Drug metabolism in Sprague-Dawley rat plasma assessed as cis-(R)-2-(4-(((1R,2R)-2-Hydroxycyclopentyl)methyl)phenyl)propanoic acid metabolite formation at 3 mg/kg, iv measured after 2 hrs by UHPLC-MS/MS analysis; type: ADME, organism-based; conditions: in vivo
[35] = Toxicity in Beagle dog assessed as change in hemoglobin level at 10 mg/kg , iv administered every day for 4 weeks; type: organism-based, Canis lupus familiaris; conditions: in vivo, 672 h
[36] = Toxicity in Sprague-Dawley rat assessed as red cell distribution width at 10 mg/kg , iv administered every day for 4 weeks and measured after 8 weeks; type: organism-based; conditions: in vivo, 1344 h
[37] = test system: Mus musculus; assay: Analgesic activity in acetic acid induced ICR mouse assessed as average writhing times at 0.25 mg/kg, iv administered for 15 mins followed by acetic acid injection and measured within 15 mins (reference value: 21.1 +/- 16.3); type: functional; conditions: time 30 min, 0.5 h
[38] = Plasma protein binding in cynomolgus monkey at 600 to 15000 ng/ml measured after 6 hrs by LC-MS/MS analysis; type: ADME, cell-free, Macaca fascicularis; conditions: dose 600-15000 ng/ml, read-out: PPB
[39] = Toxicity in NZW rabbit assessed as infiltration of inflammatory cells at 10 mg/kg/day, iv administered once daily for 7 days and measured after 3 to 14 days by H and E staining based optical microscopy analysis; type: organism-based, Oryctolagus cuniculus; conditions: in vivo, time 3-14 day
[40] = Drug metabolism in Sprague-Dawley rat plasma assessed as trans-(S)-2-(4-(((1S,2R)-2-Hydroxycyclopentyl)methyl)phenyl)propanoic acid metabolite formation at 3 mg/kg, iv measured after 2 hrs by UHPLC-MS/MS analysis; type: ADME, organism-based; conditions: in vivo
[41] = Toxicity in male Sprague-Dawley rat assessed as decrease in RBC level at 10 mg/kg , iv administered every day for 4 weeks; type: organism-based, Erythrocyte; parameters: scale not given: the % may be the effect or the level left; conditions: in vivo, 672 h
[42] = Toxicity in Beagle dog assessed as change in red cell distribution width at 10 mg/kg , iv administered every day for 4 weeks; type: organism-based, Canis lupus familiaris; conditions: in vivo, 672 h
[43] = Toxicity in NZW rabbit assessed as necrosis in endothelial cells at 10 mg/kg/day, iv administered once daily for 7 days and measured after 3 to 14 days by H and E staining based optical microscopy analysis; type: organism-based, Oryctolagus cuniculus; conditions: in vivo, time 3-14 day

C[C@H](C(=O)O)c1ccc(C[C@H]2CCC[C@@H]2O)cc1.NC(CO)(CO)CO
Drug metabolism [1]: Metabolite_Notdetected
Activity [2]: < 10%
ED50 [3]: 1.28 mg/kg
Drug metabolism [4]: Metabolite_Notdetected
Drug metabolism [5]: Metabolite_Notdetected
Activity [6]: Non-Toxic
fraction unbound at 6 h [7]: < 0.3
Activity [8]: Non-Toxic
fraction unbound at 6 h [9]: < 0.3
solubility at 0.5 h [10]: 176 mg/mL
Activity [11]: Non-Toxic
Activity [12]: Non-Toxic
Activity [13]: Non-Toxic
Activity [14]: 7.7
inhibition in vivo at 0.25 mg/kg [15]: 39.3%
ED50 [16]: 8.01 mg/kg
Activity [17]: Non-Toxic
inhibition in vivo at 0.13 mg/kg [18]: 10%
Activity [19]: Non-Toxic
Drug metabolism [20]: Metabolite_Notdetected
fraction unbound [21]: < 0.05
Activity [22]: Non-Toxic
fraction unbound at 6 h [23]: < 0.3
Activity [24]: Non-Toxic
Activity [25]: 19
inhibition in vivo at 1 mg/kg [26]: 68.2%
Activity [27]: < 10%
inhibition in vivo at 0.5 mg/kg [28]: 63.5%
Activity [29]: 6.7
ED50 [30]: 0.43 mg/kg
Drug metabolism [31]: Metabolite_Notdetected
Activity [32]: < 10%
Activity [33]: Non-Toxic
Drug metabolism [34]: Metabolite_Notdetected
Activity [35]: Non-Toxic
Activity [36]: Non-Toxic
Activity [37]: 12.8
fraction unbound at 6 h [38]: < 0.3
Activity [39]: Non-Toxic
Drug metabolism [40]: Metabolite_Notdetected
Activity [41]: < 10%
Activity [42]: Non-Toxic
Activity [43]: Non-Toxic

— ChEMBL document CHEMBL5154819 (Eur J Med Chem, 2022)
